Series [1] deals with T1, human calcitonin (a) receptor, BHK570 cells (Homo sapiens, UniProt P30988).
T1 construct: host or cells: BHK570
T1 sequence (P30988 25-474): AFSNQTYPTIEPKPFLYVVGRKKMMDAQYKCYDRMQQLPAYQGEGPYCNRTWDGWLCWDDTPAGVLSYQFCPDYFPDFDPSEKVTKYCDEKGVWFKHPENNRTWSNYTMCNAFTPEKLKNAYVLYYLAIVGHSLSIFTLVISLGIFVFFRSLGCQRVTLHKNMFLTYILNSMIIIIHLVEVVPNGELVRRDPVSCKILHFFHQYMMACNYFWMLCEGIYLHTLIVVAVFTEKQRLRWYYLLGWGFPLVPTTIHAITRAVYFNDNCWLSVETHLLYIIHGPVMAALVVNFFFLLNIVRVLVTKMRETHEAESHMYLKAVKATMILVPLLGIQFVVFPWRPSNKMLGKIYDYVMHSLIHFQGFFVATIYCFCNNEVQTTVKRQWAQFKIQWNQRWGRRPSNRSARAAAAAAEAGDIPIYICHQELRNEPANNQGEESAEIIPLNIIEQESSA
Briefly: Assay (II)b functional CRE-luciferase assay without albumin, human calcitonin receptor. Format: cell-based. The note with it: Tested without HSA; read-out: hCTR funct. EC50. From the text: (§1) Assay(II)b—Human Calcitonin and Amylin Receptor Assay without Albumin
(§2) 1. Luciferase Assay Outline
(§3) Activation of calcitonin and amylin (co-expression of calcitonin receptor and receptor activity modifying proteins (RAMP)) receptors lead to increased intracellular concentrations of cAMP. Consequently, transcription is activated by promoters containing multiple copies of the cAMP response element (CRE). It is thus possible to measure amylin activity by the use of a CRE luciferase reporter gene introduced into BHK cells also expressing calcitonin or amylin receptors.
(§4) 2. Construction of Calcitonin (a)—and Amylin 3(a)—Receptor/CRE-Luc Cell Line.
(§5) A BHK570 cell line was stably transfected with the human calcitonin receptor and a CRE-responsive luciferase reporter gene (Hollex-1 cell line, obtained from ZymoGenetics described in U.S. Pat. No. 5,622,839). The cell line was further transfected with RAMP-3, using standard methods. This turns the calcitonin receptor into an amylin 3(a) receptor. Methotrexate, Neomycin, and Hygromycin are selection markers for luciferase, the calcitonin receptor, and RAMP-3, respectively. To prepare the batches of frozen cells used in the luciferase assay described in the section below, the cells were cultured in growth medium (DMEM with 10% FBS, 1% Pen/Strep and 1 mM Napyruvate). […] Cells at approximately 80-90% confluence were washed with PBS and loosened from the plates with Versene. After centrifugation (2 min, 1300 rpm, in a Centrion Scientific centriuge C2 series with a BRK 5510 rotor head), the cell pellet was dissolved in 10% DMSO, 30% FBS and 60% growth medium and frozen (−80° C.) until utilization.
(§6) The day before the experiment, BHK calcitonin (a) receptor- or amylin 3(a)-receptor/CRE-luc cells were thawed, washed twice, and seeded in 40 μl growth medium on white 384 well culture plates (4.000 cells/well). On the assay day, the cells were washed 3 times in assay media (Dulbecco media W/o phenol red, 500 ml (Gibco, 11880-028); 0.1% ovalbumin; 10 mM Hepes pH 7.4; 1× Glutamin; 1% Pen/Strep). Then, 30 μl/well of sample diluted in assay buffer was added. After 3 hours of incubation at 37° C. and 5% CO2, the reaction was terminated by adding 30 μl/well SteadyLite Plus™. The plates were shaken at 300 rpm for 5 min at RT. Then, the plates were sealed and incubated at room temperature for 30 minutes. Finally, luminescence was tested on a TopCounter (Packard) in SPC (single photon counting) mode.
(§7) Additional Comment Regarding Use of Data Retrieved Via this Method
(§8) For the same reasons, measurements made in Assay IIa should not be compared in Assay IIb.

In series [2] the target is T2, human amylin receptor (human calcitonin receptor + human RAMP3), BHK tk'ts 13 cells (Homo sapiens, UniProt O60896+P30988).
T2 construct: expressed in transfected cells; host or cells: BHK tk'ts 13
Briefly: Assay (Va) binding to the human amylin receptor (whole cell). The note with it: read-out: hAmylin-R binding IC50. Here is the method: The day before the assay the cells were Seeded into Poly-D-Lysin coated 384W Opaque White, BD BioCoat plates (10000 cells/well) and Incubated overnight at 37° C., 5% CO2, 95% humidity.

Series [3] concerns the target T3, human amylin 3(a) receptor (human calcitonin receptor + RAMP-3), BHK570 cells (Homo sapiens, UniProt O60896+P30988).
T3 construct: host or cells: BHK570
Briefly: Assay (II)b functional CRE-luciferase assay without albumin, human amylin receptor. In kind it is cell-based. The following applies: Tested without HSA; read-out: hAmylin-R funct. EC50.
Source text: as §1, §2, §3, §4, §5, §6, §7, §8

Series [4] in a line: Assay (IV) determination of solubility. In kind it is physicochemical. As to the method: Assay (IV)—Determination of Solubility
The mimylin peptide was dissolved in water at ˜500 nmol/ml and mixed 1:1 with a series of buffers (100 mM glycylglycine pH 3.0, 100 mM glycylglycine pH 4.0, 100 mM glycylglycine pH 5.0, 100 mM bistrispropane pH 6.0, 100 mM bistrispropane pH 6.5, 100 mM bistrispropane pH 7.0, 100 mM bistrispropane pH 7.5, 100 mM bistrispropane pH 8.0).

Peptide text beside a SMILES is read from it. * marks the point of attachment. C18 diacid = O=C(O)CCCCCCCCCCCCCCCCC(=O)*

T3 sequence (O60896 24-148, one chain of several): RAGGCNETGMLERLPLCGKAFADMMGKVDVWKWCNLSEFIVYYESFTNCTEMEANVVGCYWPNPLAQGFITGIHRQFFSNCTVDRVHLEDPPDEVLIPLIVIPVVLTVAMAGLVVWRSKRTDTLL
T2 sequence (O60896 24-148, one chain of several): as above

Regarding `CC(C)C[C@H](NC(=O)[C@H](C)NC(=O)[C@H](C)NC(=O)[C@@H](NC(=O)[C@H](CO)NC(=O)[C@H](CC(C)C)NC(=O)[C@H](CCC(=O)O)NC(=O)[C@H](CO)NC(=O)[C@H](C)N)[C@@H](C)O)C(=O)NCC(=O)N[C@@H](Cc1c[nH]cn1)C(=O)N[C@@H](CC(C)C)C(=O)N[C@@H](CO)C(=O)N[C@@H](C)C(=O)N[C@@H](CCC(=O)O)C(=O)N[C@@H](CC(C)C)C(=O)N[C@@H](Cc1c[nH]cn1)C(=O)N[C@@H](CCC(=O)O)C(=O)N[C@@H](CC(C)C)C(=O)N[C@@H](C)C(=O)N[C@H](C(=O)N[C@@H](CC(C)C)C(=O)N1CCC[C@H]1C(=O)N[C@@H](CCCNC(=N)N)C(=O)N[C@H](C(=O)N[C@@H](CCC(=O)O)C(=O)N[C@H](C(=O)NCC(=O)N[C@@H](CO)C(=O)NCC(=O)N[C@@H](CO)C(=O)N1CCC[C@H]1C(N)=O)[C@@H](C)O)[C@@H](C)O)[C@@H](C)O` [72bb, H—ASELSTAALGHLSAELHELATLPRTETGSGSP—NH2] (H-ASELSTAALGHLSAELHELATLPRTETGSGSP-NH2), the EC50 (commonly the concentration at which the effect is half-maximal) stood at 3 pM in series [1] and 14 pM in series [3]. Moreover, the IC50 – broadly, the concentration needed to halve the response being measured – in series [2] amounted to 5100 pM.

Turning to `CC[C@H](C)[C@H](NC(=O)[C@@H](NC(=O)[C@H](C)NC(=O)[C@@H](NC(=O)[C@H](CO)NC(=O)[C@H](CC(C)C)NC(=O)[C@H](CCC(=O)O)NC(=O)[C@H](CO)NC(=O)[C@H](C)NC(=O)[C@H](CCC(=O)O)NC(=O)CCCCCCCCCCCCCCCCC(=O)O)[C@@H](C)O)C(C)C)C(=O)NCC(=O)N[C@@H](CCCNC(=N)N)C(=O)N[C@@H](CC(C)C)C(=O)N[C@@H](CO)C(=O)N[C@@H](C)C(=O)N[C@@H](CCC(=O)O)C(=O)N[C@@H](CC(C)C)C(=O)N[C@@H](Cc1c[nH]cn1)C(=O)N[C@@H](CCC(=O)O)C(=O)N[C@@H](CC(C)C)C(=O)N[C@@H](C)C(=O)N[C@H](C(=O)N[C@@H](CC(C)C)C(=O)N1CCC[C@H]1C(=O)N[C@@H](CCCNC(=N)N)C(=O)N[C@H](C(=O)N[C@@H](CCC(=O)O)C(=O)N[C@H](C(=O)NCC(=O)N1CCC[C@H]1C(=O)N[C@@H](CCC(=O)O)C(=O)N[C@@H](CO)C(=O)N1CCC[C@H]1C(N)=O)[C@@H](C)O)[C@@H](C)O)[C@@H](C)O` [compound 26, [N-terminal(C18 diacid), 9V, 10I]mimylin] ({C18 diacid}-EASELSTAVIGRLSAELHELATLPRTETGPESP-NH2), the solubility (as a rule, the dissolved amount per volume that the medium holds) at 18 h in series [4] (bistrispropane buffer, pH 6.5) was not below 200 µM; in series [4] (bistrispropane buffer, pH 7.5) it was not below 200 µM; in series [4] (bistrispropane buffer, pH 6.0), not below 200 µM; in series [4] (bistrispropane buffer, pH 7.0), not below 200 µM; in series [4] (bistrispropane buffer, pH 8.0) it was not below 200 µM; in series [4] (glycylglycine buffer, pH 3.0) it was not below 200 µM. Moreover, the solubility at 18 h in series [4] (glycylglycine buffer, pH 4.0) was not below 200 µM; in series [4] (glycylglycine buffer, pH 5.0), not below 200 µM. Moreover, the concentration for a half-maximal effect (EC50) in series [1] turned out to be 6 pM; in series [3], 7 pM. Also, in series [2], the IC50 worked out at 891 pM.

Take `CC(C)C[C@H](NC(=O)CNC(=O)[C@H](CO)NC(=O)[C@@H](N)CC(C)C)C(=O)N[C@@H](CO)C(=O)N[C@H](C(=O)N[C@@H](C)C(=O)N[C@H](C(=O)N[C@@H](CC(C)C)C(=O)NCC(=O)N[C@@H](CCCNC(=N)N)C(=O)N[C@@H](CC(C)C)C(=O)N[C@@H](CO)C(=O)N[C@@H](CCC(N)=O)C(=O)N[C@@H](CCC(=O)O)C(=O)N[C@@H](CC(C)C)C(=O)N[C@@H](Cc1c[nH]cn1)C(=O)N[C@@H](CCC(=O)O)C(=O)N[C@@H](CC(C)C)C(=O)N[C@@H](CCC(N)=O)C(=O)N[C@H](C(=O)N[C@@H](Cc1ccc(O)cc1)C(=O)N1CCC[C@H]1C(=O)N[C@@H](CCCNC(=N)N)C(=O)N[C@H](C(=O)N[C@@H](CCC(=O)O)C(=O)N[C@H](C(=O)NCC(=O)N[C@@H](CO)C(=O)N[C@@H](CCC(N)=O)C(=O)N[C@H](C(=O)N[C@@H](Cc1ccc(O)cc1)C(N)=O)[C@@H](C)O)[C@@H](C)O)[C@@H](C)O)[C@@H](C)O)C(C)C)[C@@H](C)O` [127bb, H—LSGLSTAVLGRLSQELHELQTYPRTETGSQTY—NH2] (H-LSGLSTAVLGRLSQELHELQTYPRTETGSQTY-NH2): the results for the concentration giving a half-maximal response (EC50) in series [1] and in series [3] were 6 pM and 11 pM, respectively. The IC50 in series [2] turned out to be 1180 pM.

Turning to `CC(C)C[C@H](NC(=O)[C@H](CCC(=O)O)NC(=O)[C@H](Cc1c[nH]cn1)NC(=O)[C@H](CC(C)C)NC(=O)[C@H](CCC(=O)O)NC(=O)[C@H](C)NC(=O)[C@H](CO)NC(=O)[C@H](CC(C)C)NC(=O)[C@H](CCCNC(=N)N)NC(=O)CNC(=O)[C@H](CC(C)C)NC(=O)[C@@H](NC(=O)[C@H](C)NC(=O)[C@@H](NC(=O)[C@H](CO)NC(=O)[C@@H](NC(=O)[C@H](CCC(=O)O)NC(=O)[C@H](CO)NC(=O)[C@H](C)N)C(C)C)[C@@H](C)O)C(C)C)C(=O)N[C@@H](C)C(=O)N[C@H](C(=O)N[C@@H](CC(C)C)C(=O)N1CCC[C@H]1C(=O)N[C@@H](CCCNC(=N)N)C(=O)N[C@H](C(=O)N[C@@H](CCC(=O)O)C(=O)N[C@H](C(=O)NCC(=O)N[C@@H](CO)C(=O)NCC(=O)N[C@@H](CO)C(=O)N1CCC[C@H]1C(N)=O)[C@@H](C)O)[C@@H](C)O)[C@@H](C)O` [86bb, H—ASEVSTAVLGRLSAELHELATLPRTETGSGSP—NH2] (H-ASEVSTAVLGRLSAELHELATLPRTETGSGSP-NH2), the results for the concentration giving a half-maximal response (EC50) in series [1] and in series [3] were 2 pM and 7 pM, respectively. In addition, the IC50 in series [2] is 982 pM.

Consider `CC(C)C[C@H](NC(=O)[C@H](CCC(=O)O)NC(=O)[C@H](Cc1c[nH]cn1)NC(=O)[C@H](CC(C)C)NC(=O)[C@H](CCC(=O)O)NC(=O)[C@H](C)NC(=O)[C@H](CO)NC(=O)[C@H](CC(C)C)NC(=O)[C@H](CCCNC(=N)N)NC(=O)CNC(=O)[C@H](CC(C)C)NC(=O)[C@@H](NC(=O)[C@H](C)NC(=O)[C@@H](NC(=O)[C@@H](NC(=O)[C@H](CC(C)C)NC(=O)[C@H](CCC(=O)O)NC(=O)[C@H](CO)NC(=O)[C@H](C)N)[C@@H](C)O)[C@@H](C)O)C(C)C)C(=O)N[C@@H](C)C(=O)N[C@H](C(=O)N[C@@H](CC(C)C)C(=O)N1CCC[C@H]1C(=O)N[C@@H](CCCNC(=N)N)C(=O)N[C@H](C(=O)N[C@@H](CCC(=O)O)C(=O)N[C@H](C(=O)NCC(=O)N[C@H](C(=O)NCC(=O)N[C@H](C(=O)N1CCC[C@H]1C(N)=O)[C@@H](C)O)[C@@H](C)O)[C@@H](C)O)[C@@H](C)O)[C@@H](C)O` [95bb, H—ASELTTAVLGRLSAELHELATLPRTETGTGTP—NH2] (H-ASELTTAVLGRLSAELHELATLPRTETGTGTP-NH2), for which the 50% effective concentration (EC50) amounted to 9 pM in series [1] and 46 pM in series [3]. The half-inhibitory concentration (IC50) in series [2] was 20200 pM.

Values taken from US9593149B2, “Amylin and calcitonin receptor agonist” (Novo Nordisk A/S, priority 2014, dated 2017).
